The subject of this test is HFD-fed, streptozotocin (STZ) injected rats with type 2 diabetes (T2DM). The experiment in a line: Study 3 (BVISIV): plasma biochemical parameters in HFD + STZ type 2 diabetes rats. It is filed as in vivo. The settings on record: for relative effectiveness in lowering serum triglyceride, LDL and ALT levels: 200 mg/kg/day oral, comparison among BVISIV formulations.

As to `O=C[C@H](O)[C@@H](O)[C@@H](O)[C@H](O)C(=O)O` [BVISIV 4, Galacturonic Acid], where the note is “200 mg/kg/day, end of 6 weeks, vs Group 2”, the “lowering of glucose serum levels” value is “most effective”.
For `O=C[C@H](O)[C@@H](O)[C@@H](O)[C@H](O)CO` [BVISIV 5, Galactose], the “relative effectiveness in lowering serum triglyceride, LDL and ALT levels” value was “effective”.
Same read-out and setting: the result for `O=C[C@@H](O)[C@H](O)[C@H](O)CO` [BVISIV 6, Arabinose] reads “did not perform as well as the other formulations”.

These data come from patent US20190365790A1, “Compounds, Compositions and Methods for Prevention or Treatment of Liver and Lipid-related Conditions” (SIVANARAY INC., priority 2017, published 2019).
